# Laboratory results published in patent publication US20240376091A1, “THIADIAZOLEAMIDE DERIVATIVES AND THEIR APPLICATIONS” (ZHEJIANG UNIVERSITY, priority 2021, published 2024).
# Key:
# LNCaP xenograft = LNCaP xenograft model in vivo; conditions: intratumor injection 2.5 mg/kg/week
# Description: Methods: LNCaP cells were injected to the Male CB17 SCID mice (6-8 weeks old). Once tumor size reached target value, the mice were randomized into three groups with 6-8 mice per group. […] The mice weight and tumor volume were periodically recorded. Finally, the tumors were harvested.
# AR = target: T1, AR (Homo sapiens, UniProt P10275, T878A); experiment: AR transcriptional activity, LNCaP-ARR2PB-eGFP reporter cells; assay type: cell-based; conditions: read-out: IC50 AR transcriptional activities
# T1 construct: into the androgen-dependent PCa cells (LNCaP); endogenous in cells; host or cells: LNCaP-ARR2PB-eGFP
# T1 sequence (P10275 1-920 T878A): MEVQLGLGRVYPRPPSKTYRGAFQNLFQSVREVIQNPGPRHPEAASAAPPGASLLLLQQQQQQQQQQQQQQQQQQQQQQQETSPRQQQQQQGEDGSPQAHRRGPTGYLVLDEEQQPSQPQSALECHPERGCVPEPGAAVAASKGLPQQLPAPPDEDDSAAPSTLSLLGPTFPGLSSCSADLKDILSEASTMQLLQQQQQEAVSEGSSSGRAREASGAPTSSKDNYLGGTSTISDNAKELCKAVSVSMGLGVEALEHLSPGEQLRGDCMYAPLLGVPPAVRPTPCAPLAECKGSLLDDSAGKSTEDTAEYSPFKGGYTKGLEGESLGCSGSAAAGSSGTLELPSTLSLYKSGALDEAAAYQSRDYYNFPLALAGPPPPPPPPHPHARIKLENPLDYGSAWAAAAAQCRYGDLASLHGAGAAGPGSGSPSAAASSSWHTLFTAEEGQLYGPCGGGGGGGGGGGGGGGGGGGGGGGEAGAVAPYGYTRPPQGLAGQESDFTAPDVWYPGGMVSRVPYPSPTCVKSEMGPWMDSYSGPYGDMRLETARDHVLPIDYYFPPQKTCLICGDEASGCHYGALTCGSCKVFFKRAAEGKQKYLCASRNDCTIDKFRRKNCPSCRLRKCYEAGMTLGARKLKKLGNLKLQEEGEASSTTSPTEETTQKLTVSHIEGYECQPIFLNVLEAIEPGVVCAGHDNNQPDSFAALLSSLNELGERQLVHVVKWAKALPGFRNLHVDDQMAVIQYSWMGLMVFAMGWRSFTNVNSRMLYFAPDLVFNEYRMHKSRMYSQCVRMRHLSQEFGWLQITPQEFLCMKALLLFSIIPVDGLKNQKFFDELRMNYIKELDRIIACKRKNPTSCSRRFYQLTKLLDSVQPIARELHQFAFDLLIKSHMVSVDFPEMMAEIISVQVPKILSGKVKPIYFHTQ
# From the text: Detection principles: We conducted a stable transfection of promoter ARR2PB known for its strong AR responsiveness, into the androgen-dependent PCa cells (LNCaP). The expression of enhanced green fluorescent protein (eGFP) is depending on the degree of activation of AR. Therefore, LNCaP-ARR2PB-eGFP cell line could quantitatively determine the AR antagonistic activities of the compounds by evaluating the expression of eGFP.
Structure (SMILES),body weight (LNCaP xenograft),IC50 (AR)
"CNC(=O)c1ccc(N2C(=S)N(c3ccc(C#N)c(C(F)(F)F)c3)C(=O)C2(C)C)cc1F [Enzalutamide, reference compound]",no significant loss of body weight,–
"COc1cccc(-c2cc(C(=O)Nc3nc(CN4CCOCC4)ns3)c(C(F)(F)F)o2)c1 [Compound E-39, 5-(3-Methoxyphenyl)-N-(3-(morpholinomethyl)-1,2,4-thiadiazol-5-yl)-2-(trifluoromethyl)furan-3-carboxamide]",–,2190 nM
"CC(=O)Cc1nsc(NC(=O)c2coc(-c3cccc(OC(F)(F)F)c3)c2)n1 [Compound B-4, N-(3-(2-oxopropyl)-1,2,4-thiadiazol-5-yl)-5-(3-(trifluoromethoxy)phenyl)furan-3-carboxamide]",–,32500 nM
"O=C(Nc1nc(CN2CCCCC2)ns1)c1cc(-c2cccc(OC(F)F)c2)oc1C(F)(F)F [Compound E-41, 5-(3-(Difluoromethoxy)phenyl)-N-(3-(piperidin-1-ylmethyl)-1,2,4-thiadiazol-5-yl)-2-(trifluoromethyl)furan-3-carboxamide]",–,890 nM
"CN(C)Cc1nsc(NC(=O)c2coc(-c3cccc(C#N)c3)c2)n1 [Compound B-47, 5-(3-Cyanophenyl)-N-(3-((dimethylamino)methyl)-1,2,4-thiadiazol-5-yl)furan-3-carboxamide]",–,18600 nM
"CC(Cc1nsc(NC(=O)c2cc(-c3cccc(C(F)(F)F)c3)oc2C)n1)=C(F)F [Compound A-80, N-(3-(3,3-difluoro-2-methylallyl)-1,2,4-thiadiazol-5-yl)-2-methyl-5-(3-(trifluoromethyl)phenyl)furan-3-carboxamide]",–,810 nM
"C/C(Cc1nsc(NC(=O)c2cc(-c3cccc(C(F)(F)F)c3)oc2C)n1)=N\O [Compound A-69, N-(3-(2-(hydroxyimino)propyl)-1,2,4-thiadiazol-5-yl)-2-methyl-5-(3-(trifluoromethyl)phenyl)furan-3-carboxamide]",–,540 nM
"COc1cccc(-c2cc(C(=O)Nc3nc(CC(C)=O)ns3)c(C(F)(F)F)o2)c1 [Compound E-3, 5-(3-Methoxyphenyl)-N-(3-(2-oxopropyl)-1,2,4-thiadiazol-5-yl)-2-(trifluoromethyl)furan-3-carboxamide]",–,570 nM
"CC(=O)Cc1nsc(NC(=O)c2cc(-c3cccc(C(F)(F)F)c3)sc2C)n1 [Compound C-1, 2-Methyl-N-(3-(2-oxopropyl)-1,2,4-thiadiazol-5-yl)-5-(3-(trifluoromethyl)phenyl)thiophene-3-carboxamide]",–,9330 nM
"COc1cccc(-c2coc(C(=O)Nc3nc(CC(C)=O)ns3)c2)c1 [Compound G-3, 4-(3-Methoxyphenyl)-N-(3-(2-oxopropyl)-1,2,4-thiadiazol-5-yl)furan-2-carboxamide]",–,33600 nM
"Cc1sc(-c2cccc(OC(F)F)c2)cc1C(=O)Nc1nc(CN2CCCCC2)ns1 [Compound C-56, 5-(3-(Difluoromethoxy)phenyl)-2-methyl-N-(3-(piperidin-1-ylmethyl)-1,2,4-thiadiazol-5-yl)thiophene-3-carboxamide]",–,12900 nM
"Cc1oc(-c2cccc(C(F)(F)F)c2)cc1C(=O)Nc1nc(CC(C)N2CCN(C)CC2)ns1 (centres unmarked) [Compound A-43, 2-Methyl-N-(3-(2-(4-methylpiperazin-1-yl)propyl)-1,2,4-thiadiazol-5-yl)-5-(3-(trifluoro-methyl)phenyl)furan-3-carboxamide]",–,40 nM
"COc1cccc(-c2cc(C(=O)Nc3nc(CC(C)N4CCCC4)ns3)c(C)s2)c1 (centres unmarked) [Compound C-14, 5-(3-Methoxyphenyl)-2-methyl-N-(3-(2-(pyrrolidin-1-yl)propyl)-1,2,4-thiadiazol-5-yl)thiophene-3-carboxamide]",–,19400 nM
"[2H]c1c(-c2cccc(OC(F)(F)F)c2)oc(C)c1C(=O)Nc1nc(CC(C)=O)ns1 [Compound A-36, 2-Methyl-N-(3-(2-oxopropyl)-1,2,4-thiadiazol-5-yl)-5-(3-(trifluoromethoxy)phenyl)furan-4-d-3-carboxamide]",–,70 nM
"CC(Cc1nsc(NC(=O)c2cc(-c3cccc(C(F)(F)F)c3)oc2C(F)(F)F)n1)=C(F)F [Compound E-22, N-(3-(3,3-difluoro-2-methylallyl)-1,2,4-thiadiazol-5-yl)-2-(trifluoromethyl)-5-(3-(trifluoromethyl)phenyl) furan-3-carboxamide]",–,1460 nM
"CC(=O)Cc1nsc(NC(=O)c2cc(-c3cccc(OC(F)(F)F)c3)sc2C)n1 [Compound C-4, 2-Methyl-N-(3-(2-oxopropyl)-1,2,4-thiadiazol-5-yl)-5-(3-(trifluoromethoxy)phenyl)thiophene-3-carboxamide]",–,25100 nM
"Cc1oc(-c2cccc(C(F)(F)F)c2)cc1C(=O)Nc1nc(CN2CCOCC2)ns1 [Compound A-110, 2-Methyl-N-(3-(morpholinomethyl)-1,2,4-thiadiazol-5-yl)-5-(3-(trifluoromethyl)phenyl) furan-3-carboxamide]",–,250 nM
"COc1cccc(-c2cc(C(=O)Nc3nc(CC(C)=O)ns3)oc2C)c1 [Compound F-3, 4-(3-Methoxyphenyl)-5-methyl-N-(3-(2-oxopropyl)-1,2,4-thiadiazol-5-yl)furan-2-carboxamide]",–,22400 nM
"Cc1oc(-c2cccc(OC(F)F)c2)cc1C(=O)Nc1nc(CN2CCN(C)CC2)ns1 [Compound A-131, 5-(3-(Difluoromethoxy)phenyl)-2-methyl-N-(3-((4-methylpiperazin-1-yl)methyl)-1,2,4-thiadiazol-5-yl)furan-3-carboxamide]",–,1420 nM
"Cc1oc(C(=O)Nc2nc(CCl)ns2)cc1-c1cccc(C(F)(F)F)c1 [Compound F-19, N-(3-(chloromethyl)-1,2,4-thiadiazol-5-yl)-5-methyl-4-(3-(trifluoromethyl)phenyl)furan-2-carboxamide]",–,19100 nM
